In brackets after ≈: the same amount, converted by molar mass. Like-named read-outs stand apart in the source and are kept apart here.
Legend:
[1] = Rotating disk electrode LSV, Levich, Koutecký-Levich and Tafel analysis, 1 mM BQDS in 1 M H2SO4; assay type: physicochemical
Description: (§1) Rotating Disk Electrode (RDE) techniques were performed using a mirror polished glassy 5 mm diameter carbon disk electrode (Pine Instruments, AFE6R1 AU) equipped within a rotator (AFMSRCE). Electrochemical tests were performed using a potentiostat (Autolab, model PGSTAT20) and a three-compartment electrochemical glass cell which employed a Pt wire counter electrode. A saturated calomel reference electrode (SCE, E°=0.244 V vs. SHE at 25° C.) was used as the reference electrode, which was ionically connected to the main compartment of the electrochemical glass cell via a Luggin capillary.
(§2) The rotation rates were from 500 rpm to 3000 rpm. CV scan rates were from 10 mV s^−1 to 200 mV s^−1. LSV scan rate was 5 mV s^−1.

[2] = Standard electrochemical potential from CV experiments; assay type: physicochemical
Description: as §1, §2

[3] = Cyclic voltammogram of 1 mM BQ in 1 M H2SO4; assay type: physicochemical; conditions: 1 mM in 1 M sulphuric acid, scan rate 50 mV s^−1, glassy carbon electrode
Excerpt: The working electrode was a glassy carbon electrode and the counter electrode was a platinum wire.

[4] = Rotating disk electrode measurements (Levich equation), Example 6; assay type: physicochemical; conditions: 1 mM, kinematic viscosity 0.01 cm^2 s^−1
Description: The hydroquinone concentration was 1 mM and the kinematic viscosity of the solution was 0.01 cm^2 s^−1. Using the Levich equation, the diffusion coefficient of benzoquinone was calculated to be 1.5707×10^−7 cm^2 s^−1.

[5] = comparison systems; cited from earlier work
[6] = comparison systems; cited from earlier work; remark: listed apart in the source
[7] = comparison species; cited from earlier work

| Compound | solubility [5] [mM] | electrochemical potential [6] | diffusion coefficient [7] | charge transfer coefficient [7] | further results |
| --- | --- | --- | --- | --- | --- |
| O=S(=O)([O-])c1cc(O)c(O)c(S(=O)(=O)[O-])c1.[Na+].[Na+] [BQDS, 4,5-Dihydroxy-1,3-benzenedisulfonic acid disodium salt monohydrate] | – | – | – | – | diffusion coefficient ([1]; determined from LSV, 1 mM in 1 M H2SO4): 5.15×10^−6 cm^2 s^−1; charge transfer coefficient ([1]; from Koutecký-Levich plots and Tafel plot): 0.34; standard electrochemical potential [2]: 0.86 V vs SHE |
| O=C1C=C(S(=O)(=O)O)C=C(S(=O)(=O)O)C1=O [BQ] | – | – | – | – | oxidation peak [3]: 1 V vs MSE; reduction peak [3]: 0.7 V vs MSE; diffusion coefficient [4]: 1.5707×10^−7 cm^2 s^−1 |
| C[N+](C)(C)C[c-]1cccc1.[Cl-].[Fe+2].c1cc[cH-]c1 [Fe-NCL, (ferrocenylmethyl)trimethylammonium chloride] | 4000 | 0.67 V vs SHE | 3.74×10^−6 cm^2 s^−1 | – | – |
| CC1(C)CCCC(C)(C)N1[O] [TEMPO] | – | 0.90 V vs SHE | 7.00×10^−8 cm^2 s^−1 | 0.68 | – |
| Oc1ccc(O)cc1 [hydroquinone] | 500 (≈ 55.1 mg/mL) | identical potential as Fe-NCL | 5.03×10^−6 cm^2 s^−1 | 0.51 | – |

— patent publication US20220029188A1, “REDOX FLOW BATTERY” (IP2IPO Innovations Limited, priority 2018, published 2022)
